How the values were obtained:
Format in all cases: in vivo
[1] = system: EPHHL: wild poinsettia (Euphorbia heterophylla); test: Post-emergent herbicidal test, wild poinsettia; settings: post-emergence, 336 h, 14 days after application, read-out: Visual Growth Reduction (%) 14 Days After Application EPHHL; for pest or weed control at 17.5 g/ha: 17.5 g ai/ha; for pest or weed control at 35 g/ha: 35 g ai/ha; for pest or weed control at 70 g/ha: 70 g ai/ha; for pest or weed control at 140 g/ha: 140 g ai/ha
Procedure, shortened: (§1)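 Post-emergence foliar spray, 187 L/ha, 1st–2nd true leaf plants; vehicle acetone/DMSO/IPA/water + Atplus 411F + Triton X-155; solvent-blank controls; subirrigated; 14 d greenhouse, visual % injury.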

[2] = system: BRSNN: oilseed rape, canola (Brassica napus); test: Post-emergent herbicidal test, oilseed rape; settings: post-emergence, 336 h, 14 days after application, read-out: Visual Growth Reduction (%) 14 Days After Application BRSNN; for pest or weed control at 17.5 g/ha: 17.5 g ai/ha; for pest or weed control at 35 g/ha: 35 g ai/ha; for pest or weed control at 70 g/ha: 70 g ai/ha; for pest or weed control at 140 g/ha: 140 g ai/ha
Procedure, shortened: as §1

[3] = system: SETFA: giant foxtail (Setaria faberi); test: Post-emergent herbicidal test, giant foxtail; settings: post-emergence, 336 h, 14 days after application, read-out: Visual Growth Reduction (%) 14 Days After Application SETFA; for pest or weed control at 17.5 g/ha: 17.5 g ai/ha; for pest or weed control at 35 g/ha: 35 g ai/ha; for pest or weed control at 70 g/ha: 70 g ai/ha; for pest or weed control at 140 g/ha: 140 g ai/ha
Procedure, shortened: as §1

[4] = system: CIRAR: Canada thistle (Cirsium arvense); test: Post-emergent herbicidal test, Canada thistle; settings: post-emergence, 336 h, 14 days after application, read-out: Visual Growth Reduction (%) 14 Days After Application CIRAR; for pest or weed control at 17.5 g/ha: 17.5 g ai/ha; for pest or weed control at 35 g/ha: 35 g ai/ha; for pest or weed control at 70 g/ha: 70 g ai/ha; for pest or weed control at 140 g/ha: 140 g ai/ha
Procedure, shortened: as §1

[5] = system: ABUTH: velvetleaf (Abutilon theophrasti); test: Post-emergent herbicidal test, velvetleaf; settings: post-emergence, 336 h, 14 days after application, read-out: Visual Growth Reduction (%) 14 Days After Application ABUTH; for pest or weed control at 17.5 g/ha: 17.5 g ai/ha; for pest or weed control at 35 g/ha: 35 g ai/ha; for pest or weed control at 70 g/ha: 70 g ai/ha; for pest or weed control at 140 g/ha: 140 g ai/ha
Procedure, shortened: as §1

[6] = system: SORVU: shattercane (Sorghum bicolor); test: Post-emergent herbicidal test, shattercane; settings: post-emergence, 336 h, 14 days after application, read-out: Visual Growth Reduction (%) 14 Days After Application SORVU; for pest or weed control at 17.5 g/ha: 17.5 g ai/ha; for pest or weed control at 35 g/ha: 35 g ai/ha; for pest or weed control at 70 g/ha: 70 g ai/ha; for pest or weed control at 140 g/ha: 140 g ai/ha
Procedure, shortened: as §1

[7] = system: IPOHE: ivyleaf morningglory (Ipomoea hederacea); test: Post-emergent herbicidal test, ivyleaf morningglory; settings: post-emergence, 336 h, 14 days after application, read-out: Visual Growth Reduction (%) 14 Days After Application IPOHE; for pest or weed control at 17.5 g/ha: 17.5 g ai/ha; for pest or weed control at 35 g/ha: 35 g ai/ha; for pest or weed control at 70 g/ha: 70 g ai/ha; for pest or weed control at 140 g/ha: 140 g ai/ha
Procedure, shortened: as §1

[8] = system: DIGSA: large crabgrass (Digitaria sanguinalis); test: Post-emergent herbicidal test, large crabgrass; settings: post-emergence, 336 h, 14 days after application, read-out: Visual Growth Reduction (%) 14 Days After Application DIGSA; for pest or weed control at 17.5 g/ha: 17.5 g ai/ha; for pest or weed control at 35 g/ha: 35 g ai/ha; for pest or weed control at 70 g/ha: 70 g ai/ha; for pest or weed control at 140 g/ha: 140 g ai/ha
Procedure, shortened: as §1

[9] = system: ECHCG: barnyardgrass (Echinochloa crus-galli); test: Post-emergent herbicidal test, barnyardgrass; settings: post-emergence, 336 h, 14 days after application, read-out: Visual Growth Reduction (%) 14 Days After Application ECHCG; for pest or weed control at 17.5 g/ha: 17.5 g ai/ha; for pest or weed control at 35 g/ha: 35 g ai/ha; for pest or weed control at 70 g/ha: 70 g ai/ha; for pest or weed control at 140 g/ha: 140 g ai/ha
Procedure, shortened: as §1

[10] = system: VIOTR: wild violet (Viola tricolor); test: Post-emergent herbicidal test, wild violet; settings: post-emergence, 336 h, 14 days after application, read-out: Visual Growth Reduction (%) 14 Days After Application VIOTR; for pest or weed control at 17.5 g/ha: 17.5 g ai/ha; for pest or weed control at 35 g/ha: 35 g ai/ha; for pest or weed control at 70 g/ha: 70 g ai/ha; for pest or weed control at 140 g/ha: 140 g ai/ha
Procedure, shortened: as §1

[11] = system: CYPES: yellow nutsedge (Cyperus esculentus); test: Post-emergent herbicidal test, yellow nutsedge; settings: post-emergence, 336 h, 14 days after application, read-out: Visual Growth Reduction (%) 14 Days After Application CYPES; for pest or weed control at 17.5 g/ha: 17.5 g ai/ha; for pest or weed control at 35 g/ha: 35 g ai/ha; for pest or weed control at 70 g/ha: 70 g ai/ha; for pest or weed control at 140 g/ha: 140 g ai/ha
Procedure, shortened: as §1

Nc1c(F)c(-c2ccc(Cl)c3c2OCO3)nc(C(=O)OCc2ccccc2)c1Cl [Compound 1B]
pest or weed control at 17.5 g/ha [1]: 10%
pest or weed control at 35 g/ha [1]: 10%
pest or weed control at 70 g/ha [1]: 15%
pest or weed control at 140 g/ha [1]: 10%
pest or weed control at 17.5 g/ha [2]: 95%
pest or weed control at 35 g/ha [2]: 100%
pest or weed control at 70 g/ha [2]: 100%
pest or weed control at 140 g/ha [2]: 100%
pest or weed control at 17.5 g/ha [3]: 0%
pest or weed control at 35 g/ha [3]: 0%
pest or weed control at 70 g/ha [3]: 20%
pest or weed control at 140 g/ha [3]: 50%
pest or weed control at 17.5 g/ha [4]: 75%
pest or weed control at 35 g/ha [4]: 80%
pest or weed control at 70 g/ha [4]: 85%
pest or weed control at 140 g/ha [4]: 90%
pest or weed control at 17.5 g/ha [5]: 90%
pest or weed control at 35 g/ha [5]: 95%
pest or weed control at 70 g/ha [5]: 100%
pest or weed control at 140 g/ha [5]: 100%
pest or weed control at 17.5 g/ha [6]: 25%
pest or weed control at 35 g/ha [6]: 50%
pest or weed control at 70 g/ha [6]: 60%
pest or weed control at 140 g/ha [6]: 85%
pest or weed control at 17.5 g/ha [7]: 0%
pest or weed control at 35 g/ha [7]: 0%
pest or weed control at 70 g/ha [7]: 0%
pest or weed control at 140 g/ha [7]: 10%
pest or weed control at 17.5 g/ha [8]: 0%
pest or weed control at 35 g/ha [8]: 0%
pest or weed control at 70 g/ha [8]: 20%
pest or weed control at 140 g/ha [8]: 50%
pest or weed control at 17.5 g/ha [9]: 0%
pest or weed control at 35 g/ha [9]: 0%
pest or weed control at 70 g/ha [9]: 0%
pest or weed control at 140 g/ha [9]: 0%
pest or weed control at 17.5 g/ha [10]: 40%
pest or weed control at 35 g/ha [10]: 75%
pest or weed control at 70 g/ha [10]: 60%
pest or weed control at 140 g/ha [10]: 75%
pest or weed control at 17.5 g/ha [11]: 75%
pest or weed control at 35 g/ha [11]: 85%
pest or weed control at 70 g/ha [11]: 85%
pest or weed control at 140 g/ha [11]: 90%

Nc1c(F)c(-c2ccc(Br)c3c2OC(F)(F)O3)nc(C(=O)O)c1Cl [Compound 11]
pest or weed control at 17.5 g/ha [1]: 0%
pest or weed control at 35 g/ha [1]: 0%
pest or weed control at 70 g/ha [1]: 0%
pest or weed control at 140 g/ha [1]: 0%
pest or weed control at 17.5 g/ha [2]: 90%
pest or weed control at 35 g/ha [2]: 90%
pest or weed control at 70 g/ha [2]: 90%
pest or weed control at 140 g/ha [2]: 90%
pest or weed control at 17.5 g/ha [3]: 0%
pest or weed control at 35 g/ha [3]: 0%
pest or weed control at 70 g/ha [3]: 0%
pest or weed control at 140 g/ha [3]: 0%
pest or weed control at 17.5 g/ha [4]: 80%
pest or weed control at 35 g/ha [4]: 85%
pest or weed control at 70 g/ha [4]: 90%
pest or weed control at 140 g/ha [4]: 90%
pest or weed control at 17.5 g/ha [5]: 50%
pest or weed control at 35 g/ha [5]: 70%
pest or weed control at 70 g/ha [5]: 80%
pest or weed control at 140 g/ha [5]: 85%
pest or weed control at 17.5 g/ha [6]: 0%
pest or weed control at 35 g/ha [6]: 0%
pest or weed control at 70 g/ha [6]: 0%
pest or weed control at 140 g/ha [6]: 10%
pest or weed control at 17.5 g/ha [7]: 0%
pest or weed control at 35 g/ha [7]: 0%
pest or weed control at 70 g/ha [7]: 0%
pest or weed control at 140 g/ha [7]: 0%
pest or weed control at 17.5 g/ha [8]: 0%
pest or weed control at 35 g/ha [8]: 0%
pest or weed control at 70 g/ha [8]: 0%
pest or weed control at 140 g/ha [8]: 0%
pest or weed control at 17.5 g/ha [9]: 0%
pest or weed control at 35 g/ha [9]: 0%
pest or weed control at 70 g/ha [9]: 0%
pest or weed control at 140 g/ha [9]: 0%
pest or weed control at 17.5 g/ha [10]: 0%
pest or weed control at 35 g/ha [10]: 0%
pest or weed control at 70 g/ha [10]: 0%
pest or weed control at 140 g/ha [10]: 20%
pest or weed control at 17.5 g/ha [11]: 0%
pest or weed control at 35 g/ha [11]: 0%
pest or weed control at 70 g/ha [11]: 0%
pest or weed control at 140 g/ha [11]: 0%

From patent US11718604B2, “4-amino-6-(1,3-benzodioxole)picolinates and their use as herbicides” (Dow AgroSciences LLC, priority 2018, dated 2023)
